Measurements reported in ChEMBL document CHEMBL1128542, “Synthesis and antiviral activity of benzyl-substituted imidazo [1,5-a]-1,3,5-triazine (5,8-diaza-7,9-dideazapurine) derivatives” (J Med Chem, 1995).

Legend:
MDCK [1] = test: Inhibitory concentration against influenza virus B in MDCK cells; type: functional, cell-based; details: Canis lupus familiaris
[2] = Minimum toxic concentration required to cause a microscopically detectable alteration of normal HeLa cell morphology; type: toxicity, cell-based; details: human, HeLa cells; read-out: MTC
HeLa = test: Inhibitory concentration against respiratory syncytial virus in HeLa cells; type: functional, cell-based; details: Homo sapiens
MDCK [3] = test: Inhibitory concentration against influenza virus A in MDCK cells; type: functional, cell-based; details: Canis lupus familiaris
Vero = test: Inhibitory concentration against parainfluenza-3 virus in vero cells; type: functional, cell-based; details: Chlorocebus sabaeus
[4] = Minimum toxic concentration required to cause a microscopically detectable alteration of normal vero cell morphology; type: toxicity, cell-based; details: chlorocebus sabaeus, Vero cells; read-out: MTC
[5] = Minimum toxic concentration required to cause a microscopically detectable alteration of normal MDCK cell morphology; type: toxicity, cell-based, Canis lupus familiaris; details: dog, MDCK cells; read-out: MTC
CCRF-CEM = test: Cytotoxic concentration required to inhibit CEM cell proliferation by 50%.; type: functional; details: Homo sapiens
[6] = system: Human immunodeficiency virus 1; test: Inhibitory concentration against HIV-1 replication; type: functional, organism-based
[7] = system: Human immunodeficiency virus 2; test: Inhibitory concentration against HIV-2 replication; type: functional, organism-based

SMILES	IC50 (MDCK [1])	MCC [2]	IC50 (HeLa)	IC50 (MDCK [3])	IC50 (Vero)	MCC [4]	MCC [5]	CC50 (CCRF-CEM)	IC50 [6]	IC50 [7]
Cc1ncn2c(S)ncnc12	241 µM	602 µM	> 602 µM	181 µM	> 602 µM	602 µM	602 µM	789 µM	–	–
Oc1ncnc2c(Cc3ccccc3)ncn12	> 885 µM	> 885 µM	664 µM	> 885 µM	> 885 µM	> 885 µM	> 885 µM	633 µM	–	–
Sc1ncnc2c(Cc3ccccc3)ncn12	3.3 µM	16.5 µM	3.3 µM	4.9 µM	33 µM	24.7 µM	16.5 µM	35.1 µM	20.6 µM	17.7 µM
Cc1nc(Cc2ccccc2)c2ncnc(O)n12	> 833 µM	417 µM	> 417 µM	625 µM	> 417 µM	417 µM	> 833 µM	262 µM	–	–
CSC1NC(=O)n2cnc(CCCCCOCc3ccccc3)c2N1 (centres undefined)	55.8 µM	11.1 µM	2.2 µM	11.1 µM	> 27.9 µM	> 112 µM	55.8 µM	> 120 µM	–	–
Cc1ccc(Cc2ncn3c(=O)[nH]c(=S)[nH]c23)cc1	> 551 µM	> 735 µM	257 µM	54.4 µM	> 735 µM	> 735 µM	> 735 µM	> 735 µM	–	–
CSc1ncnc2c(Cc3ccc(C)cc3)ncn12	74 µM	74 µM	22.2 µM	14.8 µM	> 148 µM	> 370 µM	74 µM	389 µM	–	–
Cc1nc(C)n2c1NC(SCc1ccccc1)NC2=O (centres undefined)	699 µM	> 524 µM	20.9 µM	69.9 µM	> 140 µM	> 350 µM	> 699 µM	266 µM	–	–
CSC1N=CNc2c(C)ncn21 (centres undefined)	22.2 µM	556 µM	111 µM	22.2 µM	> 222 µM	111 µM	111 µM	176 µM	–	–
Cc1ccc(CSC2NC(=O)n3cnc(CCCCCOCc4ccccc4)c3N2)cc1 (centres undefined)	223 µM	44.6 µM	2.6 µM	5.3 µM	> 22.3 µM	> 89.2 µM	223 µM	343 µM	–	–
Cc1ccc(CSC2NC(=O)n3c(C)nc(C)c3N2)cc1 (centres undefined)	> 328 µM	328 µM	15.7 µM	65.6 µM	> 131 µM	328 µM	328 µM	88.8 µM	–	–
NC12CC3CC(CC(C3)C1)C2 [AMANTADINE]	> 1320 µM	661 µM	> 661 µM	661 µM	–	–	> 661 µM	–	–	–
O=c1[nH]c(=S)[nH]c2c(Cc3ccccc3)ncn12	> 581 µM	> 775 µM	> 775 µM	54.2 µM	> 775 µM	581 µM	> 775 µM	430 µM	–	–
Cc1nc(C)n2c1NC=NC2N (centres undefined)	> 1100 µM	> 1100 µM	> 1100 µM	> 1100 µM	> 1100 µM	> 1100 µM	> 1100 µM	115 µM	–	–
CSC1NC(=O)n2cnc(Cc3ccc(C)cc3)c2N1 (centres undefined)	67.7 µM	20.3 µM	4 µM	27.1 µM	136 µM	> 339 µM	67.7 µM	75.3 µM	–	–
Cc1ccc(CSC2NC(=O)n3cnc(Cc4ccc(C)cc4)c3N2)cc1 (centres undefined)	51.9 µM	10.3 µM	1.4 µM	4.1 µM	> 104 µM	> 260 µM	260 µM	44.6 µM	–	–
O=c1[nH]c(=S)[nH]c2c(CCCCCOCc3ccccc3)ncn12	> 291 µM	87.2 µM	23.2 µM	174 µM	–	–	291 µM	259 µM	–	–
NC(=O)c1ncn([C@@H]2O[C@H](CO)[C@@H](O)[C@H]2O)n1 [RIBAVIRIN]	–	> 820 µM	11.4 µM	4.9 µM	287 µM	> 1640 µM	> 820 µM	–	–	–
Cc1ccc(CSc2ncnc3c(Cc4ccc(C)cc4)ncn23)cc1	> 278 µM	278 µM	> 278 µM	> 278 µM	> 278 µM	278 µM	278 µM	> 111 µM	–	–
Cc1nc(C)n2c(=O)[nH]c(=S)[nH]c12	> 1020 µM	510 µM	> 510 µM	510 µM	> 1020 µM	1020 µM	> 1020 µM	526 µM	–	–
Cc1ccc(Cc2ncn3c(N(C)C)ncnc23)cc1	> 749 µM	> 749 µM	> 749 µM	> 749 µM	> 374 µM	374 µM	> 749 µM	412 µM	–	–
Cc1ccc(Cc2ncn3c(S)ncnc23)cc1	0.6 µM	6.2 µM	0.6 µM	2.7 µM	6.2 µM	4.6 µM	3.1 µM	32.8 µM	–	–
Cc1nc(C)n2c(S)ncnc12	833 µM	556 µM	> 556 µM	222 µM	> 556 µM	556 µM	> 1110 µM	> 694 µM	–	–
CN(C)c1ncnc2c(Cc3ccccc3)ncn12	> 790 µM	> 790 µM	395 µM	> 790 µM	> 790 µM	> 790 µM	> 790 µM	> 790 µM	–	–
Cc1ncn2c1NC=NC2N (centres undefined)	> 1340 µM	> 1340 µM	> 1340 µM	> 1340 µM	> 671 µM	671 µM	> 1340 µM	746 µM	–	–
Cc1ncn2c(=O)[nH]c(=S)[nH]c12	> 1100 µM	549 µM	> 550 µM	> 1100 µM	> 1100 µM	1100 µM	> 1100 µM	786 µM	–	–
CSC1N=CNc2c(C)nc(C)n21 (centres undefined)	103 µM	515 µM	> 515 µM	103 µM	> 515 µM	515 µM	515 µM	440 µM	–	–
Cc1ccc(Cc2ncn3c(O)ncnc23)cc1	> 833 µM	> 833 µM	> 833 µM	> 833 µM	> 833 µM	625 µM	> 833 µM	> 833 µM	–	–
